Data set [1] can be described thus: Toxicity in 4 weeks old Abca4(-/-)/Rdh8 (-/-) mouse model of intense light-induced retinal degeneration at 1 mg dosed via gavage under dark for 24 hrs before exposure to 10000 lux bright light for 1 hr by SDOCT and ERG analysis. Format: organism-based. As to conditions: in vivo, po.
For data set [2], the system named is Mus musculus. The data set is described as follows: Protective effect against intense light-induced retinal degeneration in 4 weeks old Abca4(-/-)/Rdh8 (-/-) mouse assessed as effect on thickness of outer nuclear layer at 1 mg dosed via gavage under dark for 24 hrs before exposure to 10000 lux bright light for 1 hr by SDOCT and ERG analysis. Format: functional, organism-based.

Data set [3] concerns Mus musculus. The experiment in a line: Protective effect against intense light-induced retinal degeneration in 4 weeks old Abca4(-/-)/Rdh8 (-/-) mouse assessed as 11-cis retinal levels at 1 mg dosed via gavage under dark for 24 hrs before exposure to 10000 lux bright light for 1 hr by HPLC analysis. The class given is functional.
Data set [4] is described as follows: Drug metabolism in 4 weeks old Abca4(-/-)/Rdh8 (-/-) mouse model of intense light-induced retinal degeneration assessed as accumulation of intense amide peaks in liver at 1 mg dosed via gavage under dark for 24 hrs before exposure to 10000 lux bright light for 1 hr […]. The class given is ADME, organism-based. As to conditions: in vivo, po.

Data set [5] deals with Mus musculus. The data set is described as follows: Protective effect against intense light-induced retinal degeneration in 4 weeks old Abca4(-/-)/Rdh8 (-/-) mouse assessed as inhibition of rate of visual chromophore recovery by measuring 11-cis- retinal level in eye at 0.1 mg dosed via gavage under dark for 24 hrs before exposure to 10000 lux bright light for 1 hr by HPLC analysis relative to control. The class given is functional.

For data set [6], the system named is Mus musculus. The experiment in a line: Protective effect against intense light-induced retinal degeneration in 4 weeks old Abca4(-/-)/Rdh8 (-/-) mouse at 0.5 mg dosed via gavage under dark for 24 hrs before exposure to 10000 lux bright light for 1 hr followed by exposure to dark for 3 days by ERG analysis. The class given is functional, organism-based.
The subject of data set [7] is Mus musculus. The data set is described as follows: Protective effect against intense light-induced retinal degeneration in 4 weeks old Abca4(-/-)/Rdh8 (-/-) mouse at 0.2 mg dosed via gavage under dark for 24 hrs before exposure to 10000 lux bright light for 1 hr followed by exposure to dark for 3 days by ERG analysis. The class given is functional, organism-based.

The subject of data set [8] is Mus musculus. The experiment in a line: Protective effect against intense light-induced retinal degeneration in 4 weeks old Abca4(-/-)/Rdh8 (-/-) mouse at 0.1 mg dosed via gavage under dark for 24 hrs before exposure to 10000 lux bright light for 1 hr followed by exposure to dark for 3 days by ERG analysis. The class given is functional, organism-based.
In data set [9] the test system is Mus musculus. The experiment in a line: Protective effect against intense light-induced retinal degeneration in 4 weeks old Abca4(-/-)/Rdh8 (-/-) mouse at 0.1 mg dosed via gavage under dark for 24 hrs before exposure to 10000 lux bright light for 1 hr followed by exposure to dark for 3 days by OCT analysis. The class given is functional, organism-based.
The test system of data set [10] is Mus musculus. The data set is described as follows: Protective effect against intense light-induced retinal degeneration in wild type mouse assessed as rate of visual chromophore recovery by measuring 11-cis- retinal level in eye at 0.2 mg pretreated with compound followed by exposure to light illumination 7 days after compound dosing (reference value: 85 +/- 5%) by HPLC analysis. Format: functional, organism-based.

The source made the active and inactive calls. The rule behind the calls is not given here.

As to `CC1=C(/C=C/C(=C/C=C/C(C)=C/CN)C(C)(C)C)C(C)(C)CCC1`, the Activity result in data set [1] was “Non-Toxic”. For the same compound, the result in the data set on Mus musculus [2] was inactive.
Consider `CC(/C=C/C=C(/C=C/c1ccc(C(F)(F)F)cc1)c1ccccc1)=C\CN`, for which the Activity entry in [1] is given as “Toxic”. In addition, in the data set with Mus musculus [2], the outcome was inactive.
For `CC(/C=C/C=C(/C=C/C1=CCCCC1)C(C)(C)C)=C\CN`, the Activity entry was “Toxic” in data set [1] and 50% with Mus musculus [3]. In addition, in the data set on Mus musculus [2], the result was Active. In addition, the Drug metabolism result in data set [4] is listed as “Metabolite_Detected”.
For the compound `CC1=C(/C=C/C(C)=C/C=C/C(C)=C/CN)C(C)(C)CCC1`, the Activity entry in data set [1] was “Non-Toxic”. The “inhibition (INH)” value in the data set on Mus musculus [5] amounted to 40%. The outcome in the data set on Mus musculus [6], in the data set on Mus musculus [7] and in the data set with Mus musculus [2] was Active. The result in the data set with Mus musculus [8], with Mus musculus [9] and in the data set with Mus musculus [10] was inactive.
Turning to `CC(/C=C/C=C(/C=C/c1ccccc1)C(C)(C)C)=C\CN`, the Activity entry in data set [1] is “Toxic”. Also, the result with Mus musculus [2] was Active. Besides, the Drug metabolism entry in data set [4] is “Metabolite_Detected”.
With `CC1=C(/C=C/C=C/C=C/C=C/CN)C(C)(C)CCC1`, the Activity result in data set [1] is “Non-Toxic”. Further, the result in the data set on Mus musculus [2] was Active.
Regarding `CC(C)(C)C(=C\C=C\CN)/C=C/C1=CCCCC1`, in [1], the Activity result was “Toxic”. Further, in the data set on Mus musculus [2], the outcome was inactive.
As to `COc1ccc(C(=C\C=C\C(C)=C\CN)/C=C/c2ccc(O)cc2)cc1`, in data set [1], the Activity result is listed as “Non-Toxic”. Moreover, the result in the data set on Mus musculus [2] was inactive.
For `CC(/C=C/C1=CCCCC1)=C\C=C\C(C)=C\CN`, the Activity result in [1] is reported as “Non-Toxic”. For the same compound, the result with Mus musculus [2] was inactive.
Take `CC1=C(/C=C/C(=C/C=C/C(C)=C/CN)C(C)(C)C)CCCC1`: in data set [1], the Activity entry is recorded as “Non-Toxic”. Further, the result with Mus musculus [2] was inactive.
Take `COc1ccc(C(=C\C=C\C(C)=C\CN)/C=C/C2=CCCCC2)cc1`: the Activity entry in [1] was “Non-Toxic”. In addition, in the data set on Mus musculus [2], the result was inactive.
With `CC(/C=C/C=C(/c1ccc2ccccc2c1)C(C)(C)C)=C\CN`, the Activity entry in data set [1] is “Toxic”; with Mus musculus [3] it was 50%. Also, in the data set on Mus musculus [2], the outcome was Active. For the same compound, the Drug metabolism result in [4] is “Metabolite_Detected”.
